Test in all cases: cell-based
In assay [1] the target is PTGER2 (EP2) (Homo sapiens, UniProt P43116).
For assay [2], the target named is PTRGER4 (EP4) (Homo sapiens, UniProt P35408).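 Also: assay plate preincubated 15 min at 37 °C, after which PGE2 was added at 20 nM final and incubation continued 120 min at 37 °C.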
From the text: The assay is using the PathHunter™ HEK 293 PTGER2 and PTGER4 b-arrestin cell lines from DiscoverX. The system is based on the Enzyme Fragment Complementation Technology. Two complementing fragments of the b-galactosidase enzyme are expressed within stably transfected cells. The larger portion of b-gal, termed EA for Enzyme Acceptor, is fused to the C-terminus of b-arrestin 2. The smaller fragment, termed ProLink™ tag, is fused to PTGER2 (EP2) or PTRGER4 (EP4) at the C-terminus. Upon activation, b-arrestin is recruited which forces the interaction of ProLink and EA, allowing complementation of the two fragments of b-gal and the formation of a functional enzyme which is capable of hydrolysing the substrate and generating a chemiluminescent signal.
The HEK 293 PTGER4 b-arrestin cells (DiscoverX 93-030-4C1) are detached from culture dishes with a cell dissociation buffer (Invitrogen, 13151-014), and collected in growing medium (GM: DMEM+Glutamax-I (Invitrogen 32430)/10% FCS, 1% Penicilin/streptomycin). 5000 cells per well of a 384 well plate (white with white bottom Greiner 781080) are seeded in 20 ul per well of GM. Plate is incubated at 37° C., 5% CO2 for 24 hours.
Stock solutions of test compounds are made at a concentration of 10 mM in DMSO, and serially diluted in DMSO to concentrations required for inhibition dose response curves (tested concentration range 10 μM-2 nM or 1 μM-0.2 nM).
PGE2 (Cayman 14010, stock solution: 100 uM in DMSO) is used as agonist at 20 nM final concentration, corresponding to EC80.
Five microliters of diluted compounds are transferred into the assay plate. Plate is pre-incubated 15 minutes at 37° C. Then five microliters of PGE2 (final conc. 20 nM) are transferred into the assay plate. Plate is incubated 120 minutes at 37° C.
Twelve μl of reagent are transferred to the assay plate and incubate for 1 hour at room temperature in the dark. Luminescence counts are read on a BMG Fluostar Optima reader according to manufacturers instructions.
For each compound concentration calculate of the percentage of activity compared to DMSO control value as average±STDEV. (each concentration is measured in duplicate)
(§1) When compounds were measured multiple times, mean values are given.
The target in assay [3] is EP2 (Homo sapiens, UniProt P43116).
Assay [4] deals with EP4 (Homo sapiens, UniProt P35408).
Sequence of EP4 (P35408 whole entry): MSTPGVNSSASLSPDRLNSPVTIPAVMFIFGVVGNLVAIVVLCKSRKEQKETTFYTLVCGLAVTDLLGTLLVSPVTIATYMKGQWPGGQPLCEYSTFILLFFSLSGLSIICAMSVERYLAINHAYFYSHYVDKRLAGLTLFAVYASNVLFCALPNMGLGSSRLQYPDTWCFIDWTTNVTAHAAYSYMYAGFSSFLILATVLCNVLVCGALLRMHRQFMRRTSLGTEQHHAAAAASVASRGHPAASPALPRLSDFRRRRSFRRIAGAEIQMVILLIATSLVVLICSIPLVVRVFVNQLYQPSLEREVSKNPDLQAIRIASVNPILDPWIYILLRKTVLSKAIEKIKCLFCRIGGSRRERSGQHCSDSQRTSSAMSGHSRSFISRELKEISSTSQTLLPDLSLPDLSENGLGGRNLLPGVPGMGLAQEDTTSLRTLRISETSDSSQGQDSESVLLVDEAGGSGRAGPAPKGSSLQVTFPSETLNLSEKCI
From the text: Human tumor cell lines expressing endogenously either EP4 or EP2 are used and cAMP accumulation in cells upon PGE2 stimulation is monitored.
As a detection method for cAMP the HTRF (homogeneous time resolved fluorescence) Cisbio kit (HTRF cAMP dynamic 2 kit 20′000 tests Cisbio Cat. #62AM4PEC) was used, which is based on a competitive immunoassay using a Cryptate-labeled anti-cAMP antibody and d2-labeled cAMP. Native cAMP produced by cells or unlabeled cAMP (for the standard curve) compete with exogenously added d2-labeled cAMP (acceptor) for binding to monoclonal anti-cAMP-Eu3+ Cryptate (donor). A FRET signal (Fluorescence Resonance Energy Transfer) is obtained only if the labeled anti-cAMP antibody binds the d2 labelled cAMP, thus the specific signal (i.e. energy transfer) is inversely proportional to the concentration of cAMP in the standard or sample.
The BT549 cells (NCI/No. 0507282) are detached from culture dishes with a cell dissociation buffer (Invitrogen, 13151-014), and collected in growing medium (GM: RPM11640 (Invitrogen 21875)/10% FCS, 1% Penicilin/streptomycin). Cells are counted washed and resuspended in assay buffer (AB; HBSS, 20 mM HEPES, 0.2% BSA; 2 mM IBMX). 4′000 cells in 5 μl of AB are seeded per well of a small volume 384 well plate (black with flat bottom, Greiner 784076).
Stock solutions of test compounds are made at a concentration of 10 mM in DMSO, and serially diluted in DMSO to concentrations required for inhibition dose response curves (tested concentration range 30 μM-0.4 nM; 30 μM-0.015 nM or 1 μM-0.01 nM).
PGE2 (Cayman 14010, stock solution: 6 μM in DMSO) is used as agonist at 6 nM final concentration, corresponding to EC80.
Two point five microliters of diluted compounds are transferred into the assay plate. Plate is pre-incubated 45 minutes at room temperature. Subsequently, 2.5 microliters of PGE2 (final conc. 6 nM) are transferred into the assay plate. Plate is incubated 30 minutes at room temperature.
For each compound concentration the percentage of cAMP compared to DMSO control value as average±STDEV (each concentration is measured in duplicate) is calculated.
as §1

Sequence of PTRGER4 (EP4) (P35408 whole entry): as above
Sequence of PTGER2 (EP2) (P43116 whole entry): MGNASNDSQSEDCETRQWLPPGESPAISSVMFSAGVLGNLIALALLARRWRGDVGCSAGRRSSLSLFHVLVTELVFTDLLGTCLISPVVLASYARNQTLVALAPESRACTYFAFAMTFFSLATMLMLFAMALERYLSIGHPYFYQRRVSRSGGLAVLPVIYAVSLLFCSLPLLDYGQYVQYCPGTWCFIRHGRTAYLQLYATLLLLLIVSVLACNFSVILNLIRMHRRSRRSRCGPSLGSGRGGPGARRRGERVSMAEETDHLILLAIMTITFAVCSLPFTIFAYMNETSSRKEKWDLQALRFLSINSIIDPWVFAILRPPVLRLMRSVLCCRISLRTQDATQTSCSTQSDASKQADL
Sequence of EP2 (P43116 whole entry): as above

As a reminder, the IC50 is the concentration that gives 50% inhibition. A low value points to higher potency. Turning to `O=c1[nH]c(-c2ccc(-c3cc(NCCc4c(F)cc(Br)cc4F)ncn3)cn2)no1` [Example 289, 3-(5-{6-[2-(4-Bromo-2,6-difluoro-phenyl)-ethylamino]-pyrimidin-4-yl}-pyridin-2-yl)-[1,2,4]oxadiazol-5(4H)-one], the IC50 in assay [1] came out at 0.08 µM; in assay [2], 0.308 µM; in assay [3], 0.234 µM; in assay [4], 0.32 µM.

Turning to `CCOc1cc(-c2cc(NCCc3ccc(Br)cc3OC)ncn2)ccc1C(=O)O` [Example 50, 4-{6-[2-(4-Bromo-2-methoxy-phenyl)-ethylamino]-pyrimidin-4-yl}-2-ethoxy-benzoic acid], the IC50 in assay [1] was found to be 0.264 µM; in assay [2], 1.31 µM; in assay [3], 0.259 µM; in assay [4], 0.91 µM.

In the case of `CCOc1cc(-c2cc(NCCc3cccc(OC)c3OC)ncn2)sc1-c1noc(=O)[nH]1` [Example 119, 3-(5-{6-[2-(2,3-Dimethoxy-phenyl)-ethylamino]-pyrimidin-4-yl}-3-ethoxy-thiophen-2-yl)-[1,2,4]oxadiazol-5(4H)-one], the IC50 turned out to be 0.01 µM in assay [1], 0.005 µM in assay [2], 0.017 µM in assay [3] and 0.011 µM in assay [4].

For `CCOc1c(C(=O)O)sc(-c2cc(NCCc3c(F)cc(Br)cc3F)ncn2)c1Cl` [Example 27, 5-{6-[2-(4-Bromo-2,6-difluoro-phenyl)-ethylamino]-pyrimidin-4-yl}-4-chloro-3-ethoxy-thiophene-2-carboxylic acid], the IC50 in assay [1] was found to be 0.023 µM; in assay [2], 0.168 µM; in assay [3], 0.05 µM; in assay [4], 0.097 µM.

`CCOc1cc(-c2cc(NCCc3c(F)cc(Br)cc3F)ncn2)ccc1-c1nnn[nH]1` [Example 23, [2-(4-Bromo-2,6-difluoro-phenyl)-ethyl]-{6-[3-ethoxy-4-(1H-tetrazol-5yl)-phenyl]-pyrimidin-4-yl}-amine]: the IC50 in assay [1] turned out to be 0.073 µM; in assay [2], 0.06 µM; in assay [3] it was 0.028 µM; in assay [4], 0.061 µM.

On to `Cc1cc(-c2cc(NCCc3c(F)cc(Br)cc3F)ncn2)sc1-c1noc(=O)[nH]1` [Example 136, 3-(5-{6-[2-(4-Bromo-2,6-difluoro-phenyl)-ethylamino]-pyrimidin-4-yl}-3-methyl-thiophen-2-yl)-[1,2,4]oxadiazol-5(4H)-one], for which the IC50 in assay [1] is 0.018 µM; in assay [2] it was 0.006 µM; in assay [3], 0.017 µM; in assay [4], 0.018 µM.

In the case of `CCOc1cc(-c2cc(NCCc3cc(Cl)ccc3Br)ncn2)sc1-c1noc(=O)[nH]1` [Example 94, 3-(5-{6-[2-(2-Bromo-5-chloro-phenyl)-ethylamino]-pyrimidin-4-yl}-3-ethoxy-thiophen-2-yl)-[1,2,4]oxadiazol-5(4H)-one], the IC50 in assay [1] stood at 0.079 µM; in assay [2], 0.09 µM; in assay [3] it was 0.082 µM; in assay [4] it was 0.093 µM.

For `CCn1cc(-c2cc(NCCc3c(F)cc(Br)cc3F)ncn2)cc1-c1noc(=O)[nH]1` [Example 278], the IC50 in assay [1] was 0.064 µM; in assay [2] it was 0.042 µM; in assay [3], 0.15 µM; in assay [4], 0.089 µM.

Turning to `CCOc1nc(-c2cc(NCCc3c(F)cc(Br)cc3F)ncn2)sc1-c1noc(=O)[nH]1` [Example 150, 3-(2-{6-[2-(4-Bromo-2,6-difluoro-phenyl)-ethylamino]-pyrimidin-4-yl}-4-ethoxy-thiazol-5-yl)-[1,2,4]oxadiazol-5(4H)-one], the IC50 came out at 0.013 µM in assay [1], 0.002 µM in assay [2], 0.015 µM in assay [3] and 0.009 µM in assay [4].

In the case of `CCCc1cc(-c2cc(NCCc3c(F)cc(Br)cc3F)ncn2)cc(F)c1C(=O)O` [Example 39, 4-{6-[2-(4-Bromo-2,6-difluoro-phenyl)-ethylamino]-pyrimidin-4-yl}-2-fluoro-6-propyl-benzoic acid], the IC50 in assay [1] turned out to be 0.122 µM; in assay [2] it was 0.349 µM; in assay [3] it was 0.164 µM; in assay [4], 0.697 µM.

`CCOc1cc(-c2cc(NCCc3cc(Br)ccc3OC)ncn2)sc1C(=O)O` [Example 71, 5-{6-[2-(5-Bromo-2-methoxy-phenyl)-ethylamino]-pyrimidin-4-yl}-3-ethoxy-thiophene-2-carboxylic acid]: the IC50 in assay [1] came to 0.085 µM; in assay [2], 0.1 µM; in assay [3], 0.07 µM; in assay [4], 0.053 µM.

As to `CCc1cc(-c2cc(NCCc3c(F)cc(Br)cc3F)ncn2)sc1CC(=O)O` [Example 261, (5-{6-[2-(4-Bromo-2,6-difluoro-phenyl)-ethylamino]-pyrimidin-4-yl}-3-ethyl-thiophen-2yl)-acetic acid], the IC50 was 0.058 µM in assay [1], 0.042 µM in assay [2], 0.165 µM in assay [3] and 0.101 µM in assay [4].

Consider `O=C(O)c1sc(-c2cc(NCCc3c(F)cc(Br)cc3F)ncn2)cc1Cl` [Example 31, 5-{6-[2-(4-Bromo-2,6-difluoro-phenyl)-ethylamino]-pyrimidin-4-yl}-3-chloro-thiophene-2-carboxylic acid], for which the IC50 in assay [1] turned out to be 0.039 µM; in assay [2] it was 0.1 µM; in assay [3] it was 0.008 µM; in assay [4], 0.014 µM.

With `O=C(O)c1ccc2cc(-c3cc(NCCc4c(F)cc(Br)cc4F)ncn3)[nH]c2c1` [Example 169, 2-{6-[2-(4-Bromo-2,6-difluoro-phenyl)-ethylamino]-pyrimidin-4-yl}-1H-indole-6-carboxylic acid], the IC50 in assay [1] turned out to be 0.021 µM; in assay [2] it was 0.457 µM; in assay [3], 0.074 µM; in assay [4], 1.38 µM.

As to `CCc1nc(-c2cc(NCCc3c(F)cc(Br)cc3F)ncn2)sc1C(=O)O` [Example 149, 2-{6-[2-(4-Bromo-2,6-difluoro-phenyl)-ethylamino]-pyrimidin-4-yl}-4-ethyl-thiazole-5-carboxylic acid], the 50% inhibitory concentration (IC50) in assay [1] amounted to 0.199 µM; in assay [2], 0.043 µM; in assay [3] it was 0.067 µM; in assay [4], 0.073 µM.

In the case of `CCOc1c(C(N)=O)sc(-c2cc(NCCc3c(F)cc(Br)cc3F)ncn2)c1Cl` [Example 293, 5-{6-[2-(4-Bromo-2,6-difluoro-phenyl)-ethylamino]-pyrimidin-4-yl}-4-chloro-3-ethoxy-thiophene-2-carboxylic acid amide], the IC50 in assay [1] came to 0.138 µM; in assay [2], 0.041 µM; in assay [3], 0.9 µM; in assay [4], 0.326 µM.

`CCOc1cc(-c2cc(NCCc3c(F)cc(Cl)cc3OC)ncn2)sc1-c1noc(=O)[nH]1` [Example 86, 3-(5-{6-[2-(4-Chloro-2-fluoro-6-methoxy-phenyl)-ethylamino]-pyrimidin-4-yl}-3-ethoxy-thiophen-2yl)-[1,2,4]oxadiazol-5(4H)-one]: the IC50 in assay [1] was 0.016 µM; in assay [2], 0.03 µM; in assay [3], 0.084 µM; in assay [4], 0.089 µM.

Take `CCOc1cc(-c2cc(NCCc3ccc(F)cc3C#N)ncn2)sc1-c1noc(=O)[nH]1` [Example 97]: the IC50 came out at 0.131 µM in assay [1], 0.095 µM in assay [2], 0.144 µM in assay [3] and 0.127 µM in assay [4].

(Values after patent publication US11712438B2, “Phenyl derivatives as PGE2 receptor modulators” (IDORSIA PHARMACEUTICALS LTD, priority 2017, dated 2023).)
